Results reported in patent US6943179B2, “Biurethane derivatives” (Merck Patent GmbH, priority 2001, dated 2005).

What was measured:
[1] = biological target: FXa (Homo sapiens, UniProt P00742); test: Factor Xa inhibition (FXa-IC50); format: biochemical
Excerpt: The inhibition of factor Xa by the compounds according to the invention and the measurement of the anticoagulant and antithrombotic activity can be determined by conventional in-vitro or in-vivo methods. A suitable method is described, for example, by J. Hauptmann et al. in Thrombosis and Haemostasis 1990, 63, 220-223.
The inhibition of factor Xa can be measured, for example, by the method of T. Hara et al. in Thromb. Haemostas. 1994, 71, 314-319.

[2] = biological target: T1, TF/FVIIa (Homo sapiens, UniProt P08709); test: TF/FVIIa inhibition (TF/FVIIa-IC50); format: biochemical
T1 construct: Coagulation factor VIIa initiates the extrinsic part of the coagulation cascade
T1 sequence (P08709 213-466 limits assumed): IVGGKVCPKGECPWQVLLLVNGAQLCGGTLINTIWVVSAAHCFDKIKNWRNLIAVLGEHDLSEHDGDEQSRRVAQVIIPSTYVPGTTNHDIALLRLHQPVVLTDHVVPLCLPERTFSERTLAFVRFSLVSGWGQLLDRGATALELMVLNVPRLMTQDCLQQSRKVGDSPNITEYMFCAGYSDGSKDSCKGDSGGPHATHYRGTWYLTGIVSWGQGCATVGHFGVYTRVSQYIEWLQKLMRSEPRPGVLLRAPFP
T1 sequence (P08709 61-212 limits assumed): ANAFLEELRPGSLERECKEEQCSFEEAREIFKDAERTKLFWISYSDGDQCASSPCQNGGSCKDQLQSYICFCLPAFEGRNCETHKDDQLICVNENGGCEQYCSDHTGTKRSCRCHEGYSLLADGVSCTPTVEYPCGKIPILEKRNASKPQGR
T1 sequence (P13726 33-295 partner): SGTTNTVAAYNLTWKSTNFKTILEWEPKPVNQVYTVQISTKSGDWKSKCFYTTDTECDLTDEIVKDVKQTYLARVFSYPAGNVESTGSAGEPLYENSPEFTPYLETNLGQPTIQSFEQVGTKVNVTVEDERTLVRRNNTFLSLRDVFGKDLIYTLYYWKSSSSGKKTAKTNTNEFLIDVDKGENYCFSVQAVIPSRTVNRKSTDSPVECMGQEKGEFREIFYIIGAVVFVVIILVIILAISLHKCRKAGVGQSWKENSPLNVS
Excerpt: The inhibition of factor VIIa by the compounds according to the invention and the measurement of the anticoagulant and antithrombotic activity can be determined by conventional in-vitro or in-vivo methods. A conventional method for the measurement of the inhibition of factor VIIa is described, for example, by H. F. Ronning et al. in Thrombosis Research 1996, 84, 73-81.

Sequence of FXa (P00742 235-488 limits assumed): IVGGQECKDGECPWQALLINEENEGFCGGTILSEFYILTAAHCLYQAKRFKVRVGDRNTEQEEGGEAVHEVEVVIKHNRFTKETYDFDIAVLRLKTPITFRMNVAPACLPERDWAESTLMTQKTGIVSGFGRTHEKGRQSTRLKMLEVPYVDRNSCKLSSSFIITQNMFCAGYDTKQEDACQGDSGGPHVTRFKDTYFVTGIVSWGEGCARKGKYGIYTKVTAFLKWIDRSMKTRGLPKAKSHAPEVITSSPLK
Sequence of FXa (P00742 41-179 limits assumed): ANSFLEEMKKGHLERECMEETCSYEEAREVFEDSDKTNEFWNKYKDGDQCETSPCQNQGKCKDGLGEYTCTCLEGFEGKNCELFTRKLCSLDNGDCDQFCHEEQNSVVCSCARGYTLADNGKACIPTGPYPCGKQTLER

Row | Compound | IC50 [1] [nM] | IC50 [2] [nM] | melting point
1 | O=C(Nc1ccc(Cl)cc1)NN(C(=O)Nc1ccc(N2CCCCC2=O)cc1)c1ccc(Cl)cc1 [compound 2] | 670 | 340 | 170 to 175 °C
2 | CS(=O)(=O)c1ccccc1-c1ccc(NC(=O)N(NC(=O)Nc2ccc(Cl)cc2)c2ccccc2)cc1 [compound 3] | 390 | 190 | > 250 °C
3 | O=C(Nc1ccc(Cl)cc1)NN(C(=O)Nc1ccc(N2CCCCC2=O)cc1)c1ccccc1 [No. 1, N-(4-Chlorophenylaminocarbonyl)-N′-[4-(2-oxo-1-piperidyl)phenylaminocarbonyl]-N′-phenylhydrazine] | 180 | 91 | 165 to 170 °C (dec.)
